Test results taken from patent US20180030500A1, “ENRICHMENT AND SELECTIVE CULTURE OF MYCOBACTERIA” (priority 2015, published 2018).
Where two headings read alike, the source gives them in different places.

Tests used:
Enterobacteria = settings: 7 strains, 7 days
Mycobacteria = settings: 20 strains, 7 days
Gram-positive bacteria = settings: 10 strains, 7 days
Pseudomonas aeruginosa = settings: 50 strains, 7 days
Fungi/yeasts = settings: 8 strains, 7 days
[1] = selective agent 16 mg/l in medium L
[2] = selective agent 32 mg/l in medium L
[3] = selective agent 64 mg/l in medium L
[4] = selective agent 0.125 mg/l in medium L
[5] = selective agent 0.25 mg/l in medium L
[6] = selective agent 0.5 mg/l in medium L
[7] = selective agent 400 mg/l in medium L
[8] = selective agent 800 mg/l in medium L
[9] = selective agent 1600 mg/l in medium L
[10] = selective agent 2.5 mg/l in medium L
[11] = selective agent 5.0 mg/l in medium L
[12] = selective agent 10 mg/l in medium L
[13] = selective agent 5 mg/l in medium L
[14] = selective agent 128 mg/l in medium L
[15] = selective agent 20 mg/l in medium L

Compound: CCn1cc(C(=O)O)c(=O)c2ccc(C)nc21 [nalidixic acid]
- Number of strains having shown growth (Enterobacteria; [1]): 4
- Percentage of strains having shown growth (Enterobacteria; [1]): (57%)
- Number of strains having shown growth (Enterobacteria; [2]): 0
- Number of strains having shown growth (Enterobacteria; [3]): 0
- Number of strains having shown growth (Mycobacteria; [1]): 20
- Percentage of strains having shown growth (Mycobacteria; [1]): (100%)
- Number of strains having shown growth (Mycobacteria; [2]): 20
- Percentage of strains having shown growth (Mycobacteria; [2]): (100%)
- Number of strains having shown growth (Mycobacteria; [3]): 20
- Percentage of strains having shown growth (Mycobacteria; [3]): (100%)
- Number of strains having shown growth (Gram-positive bacteria; [1]): 9
- Percentage of strains having shown growth (Gram-positive bacteria; [1]): (90%)
- Number of strains having shown growth (Gram-positive bacteria; [2]): 8
- Percentage of strains having shown growth (Gram-positive bacteria; [2]): (80%)
- Number of strains having shown growth (Gram-positive bacteria; [3]): 7
- Percentage of strains having shown growth (Gram-positive bacteria; [3]): (70%)
- Number of strains having shown growth (Pseudomonas aeruginosa; [1]): 50
- Percentage of strains having shown growth (Pseudomonas aeruginosa; [1]): (100%)
- Number of strains having shown growth (Pseudomonas aeruginosa; [2]): 43
- Percentage of strains having shown growth (Pseudomonas aeruginosa; [2]): (86%)
- Number of strains having shown growth (Pseudomonas aeruginosa; [3]): 35
- Percentage of strains having shown growth (Pseudomonas aeruginosa; [3]): (70%)

Compound: CN(C)c1ccc(C(=C2C=CC(=[N+](C)C)C=C2)c2ccccc2)cc1 [malachite green]
- Number of strains having shown growth (Enterobacteria; [4]): 7
- Percentage of strains having shown growth (Enterobacteria; [4]): (100%)
- Number of strains having shown growth (Enterobacteria; [5]): 7
- Percentage of strains having shown growth (Enterobacteria; [5]): (100%)
- Number of strains having shown growth (Enterobacteria; [6]): 7
- Percentage of strains having shown growth (Enterobacteria; [6]): (100%)
- Number of strains having shown growth (Mycobacteria; [4]): 16
- Percentage of strains having shown growth (Mycobacteria; [4]): (80%)
- Number of strains having shown growth (Mycobacteria; [5]): 20
- Percentage of strains having shown growth (Mycobacteria; [5]): (100%)
- Number of strains having shown growth (Mycobacteria; [6]): 20
- Percentage of strains having shown growth (Mycobacteria; [6]): (100%)
- Number of strains having shown growth (Gram-positive bacteria; [4]): 10
- Percentage of strains having shown growth (Gram-positive bacteria; [4]): (100%)
- Number of strains having shown growth (Gram-positive bacteria; [5]): 10
- Percentage of strains having shown growth (Gram-positive bacteria; [5]): (100%)
- Number of strains having shown growth (Gram-positive bacteria; [6]): 9
- Percentage of strains having shown growth (Gram-positive bacteria; [6]): (90%)
- Number of strains having shown growth (Pseudomonas aeruginosa; [4]): 50
- Percentage of strains having shown growth (Pseudomonas aeruginosa; [4]): (100%)
- Number of strains having shown growth (Pseudomonas aeruginosa; [5]): 50
- Percentage of strains having shown growth (Pseudomonas aeruginosa; [5]): (100%)
- Number of strains having shown growth (Pseudomonas aeruginosa; [6]): 50
- Percentage of strains having shown growth (Pseudomonas aeruginosa; [6]): (100%)

Compound: C[C@@H]1O[C@@H]1P(=O)(O)O [fosfomycin]
- Number of strains having shown growth (Enterobacteria; [7]): 3
- Percentage of strains having shown growth (Enterobacteria; [7]): (43%)
- Number of strains having shown growth (Enterobacteria; [8]): 2
- Percentage of strains having shown growth (Enterobacteria; [8]): (29%)
- Number of strains having shown growth (Enterobacteria; [9]): 2
- Percentage of strains having shown growth (Enterobacteria; [9]): (29%)
- Number of strains having shown growth (Mycobacteria; [7]): 20
- Percentage of strains having shown growth (Mycobacteria; [7]): (100%)
- Number of strains having shown growth (Mycobacteria; [8]): 20
- Percentage of strains having shown growth (Mycobacteria; [8]): (100%)
- Number of strains having shown growth (Mycobacteria; [9]): 20
- Percentage of strains having shown growth (Mycobacteria; [9]): (100%)
- Number of strains having shown growth (Gram-positive bacteria; [7]): 0
- Number of strains having shown growth (Gram-positive bacteria; [8]): 0
- Number of strains having shown growth (Gram-positive bacteria; [9]): 0
- Number of strains having shown growth (Pseudomonas aeruginosa; [7]): 15
- Percentage of strains having shown growth (Pseudomonas aeruginosa; [7]): (30%)
- Number of strains having shown growth (Pseudomonas aeruginosa; [8]): 8
- Percentage of strains having shown growth (Pseudomonas aeruginosa; [8]): (16%)
- Number of strains having shown growth (Pseudomonas aeruginosa; [9]): 6
- Percentage of strains having shown growth (Pseudomonas aeruginosa; [9]): (12%)

Compound: CN[C@H](CC(C)C)C(=O)N[C@H]1C(=O)N[C@@H](CC(N)=O)C(=O)N[C@H]2C(=O)N[C@H]3C(=O)N[C@H](C(=O)N[C@H](C(=O)O)c4cc(O)cc(O)c4-c4cc3ccc4O)[C@H](O)c3ccc(c(Cl)c3)Oc3cc2cc(c3O[C@@H]2O[C@H](CO)[C@@H](O)[C@H](O)[C@H]2O[C@H]2C[C@](C)(N)[C@H](O)[C@H](C)O2)Oc2ccc(cc2Cl)[C@H]1O [vancomycin]
- Number of strains having shown growth (Enterobacteria; [10]): 7
- Percentage of strains having shown growth (Enterobacteria; [10]): (100%)
- Number of strains having shown growth (Enterobacteria; [11]): 7
- Percentage of strains having shown growth (Enterobacteria; [11]): (100%)
- Number of strains having shown growth (Enterobacteria; [12]): 7
- Percentage of strains having shown growth (Enterobacteria; [12]): (100%)
- Number of strains having shown growth (Mycobacteria; [10]): 19
- Percentage of strains having shown growth (Mycobacteria; [10]): (95%)
- Number of strains having shown growth (Mycobacteria; [13]): 19
- Percentage of strains having shown growth (Mycobacteria; [13]): (95%)
- Number of strains having shown growth (Mycobacteria; [12]): 19
- Percentage of strains having shown growth (Mycobacteria; [12]): (95%)
- Number of strains having shown growth (Gram-positive bacteria; [10]): 0
- Number of strains having shown growth (Gram-positive bacteria; [11]): 0
- Number of strains having shown growth (Gram-positive bacteria; [12]): 0
- Number of strains having shown growth (Pseudomonas aeruginosa; [10]): 50
- Percentage of strains having shown growth (Pseudomonas aeruginosa; [10]): (100%)
- Number of strains having shown growth (Pseudomonas aeruginosa; [11]): 50
- Percentage of strains having shown growth (Pseudomonas aeruginosa; [11]): (100%)
- Number of strains having shown growth (Pseudomonas aeruginosa; [12]): 50
- Percentage of strains having shown growth (Pseudomonas aeruginosa; [12]): (100%)

Compound: colistin methanesulfonate
- Number of strains having shown growth (Enterobacteria; [2]): 3
- Percentage of strains having shown growth (Enterobacteria; [2]): (43%)
- Number of strains having shown growth (Enterobacteria; [3]): 3
- Percentage of strains having shown growth (Enterobacteria; [3]): (43%)
- Number of strains having shown growth (Enterobacteria; [14]): 3
- Percentage of strains having shown growth (Enterobacteria; [14]): (43%)
- Number of strains having shown growth (Mycobacteria; [2]): 20
- Percentage of strains having shown growth (Mycobacteria; [2]): (100%)
- Number of strains having shown growth (Mycobacteria; [3]): 20
- Percentage of strains having shown growth (Mycobacteria; [3]): (100%)
- Number of strains having shown growth (Mycobacteria; [14]): 20
- Percentage of strains having shown growth (Mycobacteria; [14]): (100%)
- Number of strains having shown growth (Gram-positive bacteria; [2]): 7
- Percentage of strains having shown growth (Gram-positive bacteria; [2]): (70%)
- Number of strains having shown growth (Gram-positive bacteria; [3]): 6
- Percentage of strains having shown growth (Gram-positive bacteria; [3]): (60%)
- Number of strains having shown growth (Gram-positive bacteria; [14]): 5
- Percentage of strains having shown growth (Gram-positive bacteria; [14]): (50%)
- Number of strains having shown growth (Pseudomonas aeruginosa; [2]): 5
- Percentage of strains having shown growth (Pseudomonas aeruginosa; [2]): (10%)
- Number of strains having shown growth (Pseudomonas aeruginosa; [3]): 5
- Percentage of strains having shown growth (Pseudomonas aeruginosa; [3]): (10%)
- Number of strains having shown growth (Pseudomonas aeruginosa; [14]): 5
- Percentage of strains having shown growth (Pseudomonas aeruginosa; [14]): (10%)

Compound: C[C@@H]1[C@H](O)[C@@H](C)/C=C/C=C/C=C/C=C/C=C/C=C/C=C/[C@H](O[C@@H]2O[C@H](C)[C@@H](O)[C@H](N)[C@@H]2O)C[C@@H]2O[C@](O)(C[C@@H](O)C[C@@H](O)[C@H](O)CC[C@@H](O)C[C@@H](O)CC(=O)O[C@H]1C)C[C@H](O)[C@H]2C(=O)O [amphotericin B]
- Number of strains having shown growth (Fungi/yeasts; [13]): 6
- Percentage of strains having shown growth (Fungi/yeasts; [13]): (75%)
- Number of strains having shown growth (Fungi/yeasts; [12]): 4
- Percentage of strains having shown growth (Fungi/yeasts; [12]): (50%)
- Number of strains having shown growth (Fungi/yeasts; [15]): 3
- Percentage of strains having shown growth (Fungi/yeasts; [15]): (37.5%)
- Number of strains having shown growth (Mycobacteria; [13]): 20
- Percentage of strains having shown growth (Mycobacteria; [13]): (100%)
- Number of strains having shown growth (Mycobacteria; [12]): 20
- Percentage of strains having shown growth (Mycobacteria; [12]): (100%)
- Number of strains having shown growth (Mycobacteria; [15]): 20
- Percentage of strains having shown growth (Mycobacteria; [15]): (100%)
